ChEMBL document CHEMBL1201862, “PubChem BioAssay data set” (2004)
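A five-concentration, 48-hour dose response in 96-well plates underlies each endpoint, interpolated linearly between surrounding concentrations. GI50 marks 50% less growth.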 Active and inactive are the calls of the source. Rule as the data show it: active = GI50 up to about 1.1 µM and inactive = higher.

Key:
Test in all cases: DTP human tumour cell line panel, 48 h
HT-29 = test system: HT-29
NCI-H522 = test system: NCI-H522
EKVX = test system: EKVX
SK-MEL-2 = test system: SK-MEL-2
ACHN = test system: ACHN
MDA-N = test system: MDA-N
Malme-3M = test system: Malme-3M
M14 = test system: M14
A498 = test system: A498
IGROV-1 = test system: IGROV-1
SW-620 = test system: SW-620
SN12C = test system: SN12C
OVCAR-3 = test system: OVCAR-3
RXF 393 = test system: RXF 393
SNB-19 = test system: SNB-19
HCT-116 = test system: HCT-116
786-0 = test system: 786-0
HCT-15 = test system: HCT-15
CAKI-1 = test system: CAKI-1
SF-295 = test system: SF-295
DU-145 = test system: DU-145
SK-MEL-28 = test system: SK-MEL-28
OVCAR-5 = test system: OVCAR-5
HOP-62 = test system: HOP-62
MDA-MB-435 = test system: MDA-MB-435
MOLT-4 = test system: MOLT-4
HOP-92 = test system: HOP-92
SNB-75 = test system: SNB-75
Hs-578T = test system: Hs-578T
HL-60 = test system: HL-60
SK-OV-3 = test system: SK-OV-3
CCRF-CEM = test system: CCRF-CEM
OVCAR-4 = test system: OVCAR-4
UACC-62 = test system: UACC-62
LOX IMVI = test system: LOX IMVI
MDA-MB-231 = test system: MDA-MB-231
SF-268 = test system: SF-268
UACC-257 = test system: UACC-257
T47D = test system: T47D
KM12 = test system: KM12
NCI-H460 = test system: NCI-H460
NCI/ADR-RES = test system: NCI/ADR-RES
SK-MEL-5 = test system: SK-MEL-5
COLO 205 = test system: COLO 205
A549 = test system: A549
SF-539 = test system: SF-539
MCF7 = test system: MCF7
PC-3 = test system: PC-3
HCC 2998 = test system: HCC 2998
K562 = test system: K562
TK-10 = test system: TK-10
UO-31 = test system: UO-31
NCI-H226 = test system: NCI-H226
NCI-H23 = test system: NCI-H23
BT-549 = test system: BT-549
OVCAR-8 = test system: OVCAR-8
U-251 = test system: U-251
RPMI-8226 = test system: RPMI-8226
SR = test system: SR

## Cc1cc(C)c2c(=O)n(CN3CCN(c4ccccc4)CC3)sc2n1
HT-29
  GI50: 18.7 µM (inactive)
NCI-H522
  GI50: 14.4 µM (inactive)
EKVX
  GI50: 29.8 µM (inactive)
SK-MEL-2
  GI50: 17.2 µM (inactive)
ACHN
  GI50: 20.1 µM (inactive)
MDA-N
  GI50: 23.7 µM (inactive)
Malme-3M
  GI50: 37.2 µM (inactive)
M14
  GI50: 24.5 µM (inactive)
A498
  GI50: > 100 µM (inactive)
IGROV-1
  GI50: > 100 µM (inactive)
SW-620
  GI50: 29.2 µM (inactive)
SN12C
  GI50: 27 µM (inactive)
OVCAR-3
  GI50: 36.6 µM (inactive)
RXF 393
  GI50: 12.6 µM (inactive)
SNB-19
  GI50: > 100 µM (inactive)
HCT-116
  GI50: 17.7 µM (inactive)
786-0
  GI50: 16.8 µM (inactive)
HCT-15
  GI50: 22.5 µM
CAKI-1
  GI50: 21 µM (inactive)
SF-295
  GI50: > 100 µM (inactive)
DU-145
  GI50: 22.2 µM (inactive)
SK-MEL-28
  GI50: 36.6 µM (inactive)
OVCAR-5
  GI50: 27.7 µM (inactive)
HOP-62
  GI50: 34.1 µM (inactive)
MDA-MB-435
  GI50: 37.8 µM (inactive)
MOLT-4
  GI50: 20.1 µM (inactive)
HOP-92
  GI50: > 100 µM (inactive)
SNB-75
  GI50: 15.8 µM (inactive)
Hs-578T
  GI50: 70.1 µM (inactive)
HL-60
  GI50: 9.71 µM (inactive)
SK-OV-3
  GI50: > 100 µM (inactive)
CCRF-CEM
  GI50: 9.59 µM (inactive)
OVCAR-4
  GI50: 54 µM (inactive)
UACC-62
  GI50: 53.2 µM (inactive)
LOX IMVI
  GI50: 20.7 µM (inactive)
MDA-MB-231
  GI50: 20.4 µM (inactive)
SF-268
  GI50: > 100 µM (inactive)
UACC-257
  GI50: 46.6 µM (inactive)
T47D
  GI50: 15 µM (inactive)
KM12
  GI50: > 100 µM (inactive)
NCI-H460
  GI50: 67.9 µM (inactive)
NCI/ADR-RES
  GI50: 24.2 µM (inactive)
SK-MEL-5
  GI50: 28.3 µM (inactive)
COLO 205
  GI50: 19.5 µM (inactive)
A549
  GI50: 33.8 µM (inactive)
SF-539
  GI50: 18.6 µM (inactive)
MCF7
  GI50: 29.7 µM (inactive)
PC-3
  GI50: 19.4 µM (inactive)
HCC 2998
  GI50: 71.3 µM (inactive)
K562
  GI50: 30 µM (inactive)
TK-10
  GI50: 49.5 µM (inactive)
UO-31
  GI50: 21.6 µM (inactive)
NCI-H226
  GI50: > 100 µM (inactive)
NCI-H23
  GI50: 29.2 µM (inactive)
BT-549
  GI50: 63.2 µM (inactive)
OVCAR-8
  GI50: 35.4 µM (inactive)
U-251
  GI50: 23.4 µM (inactive)

## C=C(C)OCOCCOC
HT-29
  GI50: > 100 µM (inactive)
NCI-H522
  GI50: > 100 µM (inactive)
EKVX
  GI50: > 100 µM (inactive)
SK-MEL-2
  GI50: > 100 µM (inactive)
ACHN
  GI50: > 100 µM (inactive)
MDA-N
  GI50: > 100 µM (inactive)
Malme-3M
  GI50: > 100 µM (inactive)
M14
  GI50: > 100 µM (inactive)
RPMI-8226
  GI50: > 100 µM (inactive)
A498
  GI50: > 100 µM (inactive)
IGROV-1
  GI50: > 100 µM (inactive)
SW-620
  GI50: > 100 µM (inactive)
SN12C
  GI50: > 100 µM (inactive)
OVCAR-3
  GI50: > 100 µM (inactive)
SNB-19
  GI50: > 100 µM (inactive)
HCT-116
  GI50: > 100 µM (inactive)
786-0
  GI50: > 100 µM (inactive)
HCT-15
  GI50: > 100 µM
CAKI-1
  GI50: > 100 µM (inactive)
SF-295
  GI50: > 100 µM (inactive)
DU-145
  GI50: > 100 µM (inactive)
SK-MEL-28
  GI50: > 100 µM (inactive)
OVCAR-5
  GI50: > 100 µM (inactive)
HOP-62
  GI50: > 100 µM (inactive)
MDA-MB-435
  GI50: > 100 µM (inactive)
MOLT-4
  GI50: > 100 µM (inactive)
SNB-75
  GI50: > 100 µM (inactive)
Hs-578T
  GI50: > 100 µM (inactive)
HL-60
  GI50: > 100 µM (inactive)
SK-OV-3
  GI50: > 100 µM (inactive)
CCRF-CEM
  GI50: > 100 µM (inactive)
UACC-62
  GI50: > 100 µM (inactive)
LOX IMVI
  GI50: > 100 µM (inactive)
MDA-MB-231
  GI50: > 100 µM (inactive)
SF-268
  GI50: > 100 µM (inactive)
UACC-257
  GI50: > 100 µM (inactive)
T47D
  GI50: > 100 µM (inactive)
KM12
  GI50: > 100 µM (inactive)
NCI-H460
  GI50: > 100 µM (inactive)
NCI/ADR-RES
  GI50: > 100 µM (inactive)
SR
  GI50: > 100 µM (inactive)
SK-MEL-5
  GI50: > 100 µM (inactive)
COLO 205
  GI50: > 100 µM (inactive)
A549
  GI50: > 100 µM (inactive)
SF-539
  GI50: > 100 µM (inactive)
MCF7
  GI50: > 100 µM (inactive)
PC-3
  GI50: > 100 µM (inactive)
HCC 2998
  GI50: > 100 µM (inactive)
K562
  GI50: > 100 µM (inactive)
TK-10
  GI50: > 100 µM (inactive)
UO-31
  GI50: > 100 µM (inactive)
NCI-H226
  GI50: > 100 µM (inactive)
NCI-H23
  GI50: > 100 µM (inactive)
BT-549
  GI50: > 100 µM (inactive)
OVCAR-8
  GI50: > 100 µM (inactive)
U-251
  GI50: > 100 µM (inactive)
